According to ChEMBL document CHEMBL1201862, “PubChem BioAssay data set” (2004):
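In this assay, cells in 96-well plates receive the compound at five concentrations for 48 hours. Endpoints are linearly interpolated between the surrounding concentrations. At the GI50, growth is halved.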 The source made the active and inactive calls. Rule as the data show it: active = GI50 up to about 1.1 µM and inactive = higher.

Columns and labels:
Test in all cases: NCI anticancer screen, dose series, 48 h
MOLT-4 = tested on: MOLT-4
IGROV-1 = tested on: IGROV-1
LOX IMVI = tested on: LOX IMVI
SK-MEL-2 = tested on: SK-MEL-2
HOP-62 = tested on: HOP-62
NCI-H460 = tested on: NCI-H460
CAKI-1 = tested on: CAKI-1
HOP-92 = tested on: HOP-92
HL-60 = tested on: HL-60
SK-MEL-28 = tested on: SK-MEL-28
RPMI-8226 = tested on: RPMI-8226
ACHN = tested on: ACHN
UO-31 = tested on: UO-31
HT-29 = tested on: HT-29
SF-539 = tested on: SF-539
HCC 2998 = tested on: HCC 2998
RXF 393 = tested on: RXF 393

Measured: GI50

O=c1c(Sc2c(O)c3ccccc3c3ccccc3c2=O)c(O)c2ccccc2c2ccccc12
inactive: MOLT-4 16.8 µM | IGROV-1 47.2 µM | LOX IMVI 25.1 µM | SK-MEL-2 18.9 µM | HOP-62 29.5 µM | NCI-H460 17.6 µM | CAKI-1 80.4 µM | HOP-92 29.3 µM | HL-60 15.6 µM | SK-MEL-28 33 µM | RPMI-8226 19.8 µM | ACHN 25.4 µM | UO-31 43.6 µM | HT-29 66.2 µM | SF-539 42.3 µM | HCC 2998 32.7 µM | RXF 393 50.7 µM

CS(=O)(=O)Sc1ccc(Cl)cc1
inactive: MOLT-4 3.53 µM | IGROV-1 2.85 µM | LOX IMVI 3.36 µM | SK-MEL-2 6.84 µM | HOP-62 2.83 µM | NCI-H460 10.9 µM | CAKI-1 10.7 µM | HOP-92 7.11 µM | HL-60 4.42 µM | SK-MEL-28 11.5 µM | RPMI-8226 10.9 µM | UO-31 3.29 µM | HT-29 9.75 µM | SF-539 2.55 µM | HCC 2998 11.2 µM | RXF 393 7.89 µM

CN(C)c1nc(Oc2nc(N(C)C)nc(N(C)C)n2)nc(N(C)C)n1
inactive: MOLT-4 > 100 µM | IGROV-1 > 100 µM | LOX IMVI > 100 µM | SK-MEL-2 > 100 µM | NCI-H460 > 100 µM | CAKI-1 > 100 µM | HOP-92 > 100 µM | HL-60 52.5 µM | SK-MEL-28 > 100 µM | RPMI-8226 63.5 µM | ACHN > 100 µM | UO-31 > 100 µM | HT-29 > 100 µM | SF-539 > 100 µM | HCC 2998 88.7 µM | RXF 393 > 100 µM

COc1cc(/C=C/C(=O)c2sc(NNC(C)=O)nc2C)ccc1O
inactive: MOLT-4 > 100 µM | IGROV-1 > 100 µM | LOX IMVI > 100 µM | SK-MEL-2 > 100 µM | HOP-62 > 100 µM | NCI-H460 > 100 µM | CAKI-1 > 100 µM | HOP-92 > 100 µM | HL-60 > 100 µM | SK-MEL-28 > 100 µM | RPMI-8226 > 100 µM | ACHN > 100 µM | UO-31 > 100 µM | HT-29 > 100 µM | SF-539 > 100 µM | HCC 2998 > 100 µM | RXF 393 > 100 µM

Clc1ccc(/N=N/c2nc3ccccc3nc2/N=N/c2ccc(Cl)cc2Cl)c(Cl)c1
inactive: MOLT-4 29.4 µM | IGROV-1 > 100 µM | LOX IMVI > 100 µM | SK-MEL-2 > 100 µM | HOP-62 > 100 µM | NCI-H460 > 100 µM | HOP-92 44 µM | HL-60 31.5 µM | SK-MEL-28 > 100 µM | RPMI-8226 > 100 µM | ACHN 45.9 µM | UO-31 > 100 µM | HT-29 > 100 µM | SF-539 > 100 µM | HCC 2998 > 100 µM | RXF 393 > 100 µM

CCCCCC#COC1CC(C)CC[C@@H]1C(C)C (some centres not stated)
inactive: IGROV-1 27.7 µM | LOX IMVI 15.6 µM | SK-MEL-2 > 100 µM | HOP-62 47.9 µM | NCI-H460 23.8 µM | CAKI-1 50.8 µM | HOP-92 > 100 µM | HL-60 23 µM | SK-MEL-28 > 100 µM | RPMI-8226 26.4 µM | ACHN 78.2 µM | UO-31 50.4 µM | HT-29 59.4 µM | SF-539 > 100 µM | HCC 2998 > 100 µM | RXF 393 36.3 µM

C/C(=N\NS(=O)(=O)c1ccc(C)cc1)C(CN1CCCCC1)C(c1ccccc1)c1c(O)c2ccccc2oc1=O (configuration not stated)
inactive: IGROV-1 > 100 µM | LOX IMVI > 100 µM | SK-MEL-2 > 100 µM | HOP-62 > 100 µM | NCI-H460 > 100 µM | CAKI-1 > 100 µM | HOP-92 95.7 µM | HL-60 > 100 µM | RPMI-8226 > 100 µM | ACHN > 100 µM | UO-31 > 100 µM | HT-29 > 100 µM | SF-539 > 100 µM | HCC 2998 > 100 µM | RXF 393 39.6 µM

CCCCC[C@@H]1CCCC2NC(CCCCCO[Si](c3ccccc3)(c3ccccc3)C(C)(C)C)CCC21 (some centres not stated)
inactive: MOLT-4 12.6 µM | IGROV-1 16.9 µM | LOX IMVI 12.2 µM | SK-MEL-2 15.1 µM | HOP-62 17.9 µM | NCI-H460 16.2 µM | CAKI-1 15.4 µM | HOP-92 10.1 µM | HL-60 8.71 µM | SK-MEL-28 17.1 µM | RPMI-8226 5.31 µM | ACHN 13.5 µM | UO-31 13.4 µM | HT-29 4.28 µM | SF-539 15.2 µM | HCC 2998 11.2 µM | RXF 393 11.3 µM

C1=c2ccccc2=C2C(=C(c3ccccc3)C(c3ccccc3)=NN2c2ccccc2)S1
inactive: MOLT-4 > 100 µM | IGROV-1 > 100 µM | LOX IMVI > 100 µM | SK-MEL-2 > 100 µM | HOP-62 > 100 µM | NCI-H460 > 100 µM | CAKI-1 > 100 µM | HOP-92 > 100 µM | HL-60 > 100 µM | SK-MEL-28 > 100 µM | RPMI-8226 > 100 µM | ACHN > 100 µM | UO-31 > 100 µM | HT-29 > 100 µM | SF-539 > 100 µM | HCC 2998 > 100 µM | RXF 393 > 100 µM
